Laboratory results published in patent US10406207B2, “Peptide conjugates of GLP-1 receptor agonists and gastrin and their use” (priority 2010, dated 2019).

Experiments:
human CCK-B R = target: T1, human CCK-B R (Homo sapiens, UniProt P32239); assay: Human CCK-B receptor efficacy assay (AlphaScreen SureFire p-ERK); assay type: cell-based; settings: Table 1; HEK293 cells expressing human CCK-B R, p-ERK; read-out: hCCK-B R EC50
T1 construct: expressed in transfected cells
T1 sequence (P32239 1-447): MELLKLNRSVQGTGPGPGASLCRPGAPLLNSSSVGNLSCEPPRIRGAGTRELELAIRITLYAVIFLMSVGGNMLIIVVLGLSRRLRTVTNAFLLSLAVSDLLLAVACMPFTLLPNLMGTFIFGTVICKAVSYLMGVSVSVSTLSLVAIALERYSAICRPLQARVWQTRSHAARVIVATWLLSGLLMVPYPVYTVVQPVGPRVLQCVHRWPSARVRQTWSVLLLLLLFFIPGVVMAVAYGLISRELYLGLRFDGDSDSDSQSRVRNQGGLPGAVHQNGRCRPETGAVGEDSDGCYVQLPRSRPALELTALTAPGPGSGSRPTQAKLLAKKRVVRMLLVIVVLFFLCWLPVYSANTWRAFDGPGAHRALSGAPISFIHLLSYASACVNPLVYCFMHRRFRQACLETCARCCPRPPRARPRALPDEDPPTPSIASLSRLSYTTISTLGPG

mouse CCK-B R = target: T2, mouse CCK-B R (Mus musculus, UniProt P56481); assay: Mouse CCK-B receptor efficacy assay (AlphaScreen SureFire p-ERK); assay type: cell-based; settings: Table 1; HEK293 cells expressing mouse CCK-B R, p-ERK; read-out: mCCK-B R EC50
T2 construct: expressed in transfected cells
T2 sequence (P56481 1-453): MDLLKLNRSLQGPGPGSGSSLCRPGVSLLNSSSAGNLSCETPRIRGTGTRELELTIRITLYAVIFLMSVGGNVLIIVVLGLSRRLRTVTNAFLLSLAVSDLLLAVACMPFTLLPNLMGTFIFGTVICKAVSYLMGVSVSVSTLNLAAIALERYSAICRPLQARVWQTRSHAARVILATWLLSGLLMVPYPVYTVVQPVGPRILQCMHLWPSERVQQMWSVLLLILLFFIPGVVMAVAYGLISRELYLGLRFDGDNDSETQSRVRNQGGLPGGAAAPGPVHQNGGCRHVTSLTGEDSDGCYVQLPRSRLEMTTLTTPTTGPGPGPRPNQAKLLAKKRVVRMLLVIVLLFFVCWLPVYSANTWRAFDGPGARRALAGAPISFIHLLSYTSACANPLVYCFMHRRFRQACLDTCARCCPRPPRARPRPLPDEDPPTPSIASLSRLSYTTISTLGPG
Description: CCK-B Receptor (CCK-B R) Efficacy Assay:
To test binding and activation of CCK-B R we produced stable cell lines expressing one of the human or mouse CCK receptors in a manner similar to that for production of the hGLP-1 R cell lines were generated (vide supra). In brief, we used HEK293 cells for transfection of the cDNA for human or mouse CCK-A R or CCK-B R [hCCK-A R (gene identity: L19315), hCCK-B R (NM_176875), mCCK-A R (NM_009827) and mCCK-B R (NM_007627)] all cloned into the transfection plasmid pIRESneo2dNGFR. The cells were grown according to standard protocol in growth medium and transfected with the plasmids using Lipofectamin (Invitrogen). The cells stably expressing CCK receptors were selected using G418 in the growth medium (only cells that have taken up and incorporated the cDNA expression plasmid survive) and propagated. Stocks of cells were frozen for later use.
In vitro effects of peptide conjugates of the invention were estimated by measuring p-ERK (using the AlphaScreen™ SureFire p-ERK assay) in HEK293 cells stably expressing the human and mouse CCK-B R (high-affinity Gastrin receptor), respectively. The Gastrin receptor efficacy assays (AlphaScreen™ SureFire p-ERK assay) were performed as follows:
The CCK-B R expressing cells in question were seeded at 20,000 cells/well in 100 μl growth medium [DMEM, 10% FCS, Penicillin (100 IU/ml), Streptomycin (100 μg/ml)] in a 96-well plate coated with poly-D-lysine. The cells were incubated in an incubator (37° C., 5% […]) for two days.
The growth medium was changed to 80 μl of serum-free medium [DMEM, Penicillin (100 IU/ml), Streptomycin (100 μg/ml)] per well, and incubation of the cells was continued for 19 hours in the incubator (37° C., 5% CO2).
• 1. After 19 hours, 20 μl of serum-free medium containing one of 5 different concentrations of peptide conjugate was added (performed in triplicate for each concentration), and the cells were incubated for 5 min. at room temperature. • 2. The stimulation medium was discarded by quickly turning the plate upside down, and 60 μl 1× lysis buffer (from the SureFire assay kit) was added per well. • 3. The plate was shaken on a plate-shaker for 5 min and then placed on ice. • 4. SureFire P-ERK assay: 4 μl of each supernatant was transferred to a 384 well proxiplate (Perkin Elmer). • 5. 4 μl of each of the two control lysates (unstimulated and stimulated) were added to the proxiplate in duplicate. • 6. […] 7 μl of the latter reaction buffer+activation buffer+beads per well were added in the proxiplate, the mix being resuspended carefully before addition to the wells. • 7. The plate was incubated for 2 hours in a dark box in a 22° C. incubator. • 8. The plate was analyzed on an Envision™ light-emission plate reader (Perkin-Elmer) using the appropriate reading program (Perkin-Elmer).

EC50 (human CCK-B R) | EC50 (mouse CCK-B R) | Structure (SMILES)
8.76 nM | 51.1 nM | CC[C@H](C)[C@H](NC(=O)[C@H](Cc1ccccc1)NC(=O)[C@H](CCC(=O)O)NC(=O)[C@H](CCCCN)NC(=O)[C@H](C)NC(=O)[C@H](C)NC(=O)[C@H](CCC(N)=O)NC(=O)CNC(=O)[C@H](CCC(=O)O)NC(=O)[C@H](CC(C)C)NC(=O)[C@H](Cc1ccc(O)cc1)NC(=O)[C@H](CO)NC(=O)[C@H](CO)NC(=O)[C@@H](NC(=O)[C@H](CC(=O)O)NC(=O)[C@H](CO)NC(=O)[C@@H](NC(=O)[C@H](Cc1ccccc1)NC(=O)[C@@H](NC(=O)CNC(=O)[C@H](CCC(=O)O)NC(=O)[C@H](C)NC(=O)[C@@H](N)Cc1c[nH]cn1)[C@@H](C)O)[C@@H](C)O)C(C)C)C(=O)N[C@@H](C)C(=O)N[C@@H](Cc1c[nH]c2ccccc12)C(=O)N[C@@H](CC(C)C)C(=O)N[C@H](C(=O)N[C@@H](CCCCN)C(=O)NCC(=O)N[C@@H](CCCNC(=N)N)C(=O)NCCOCCOCC(=O)N[C@@H](CO)C(=O)N[C@@H](CCCCN)C(=O)N[C@@H](CCCCN)C(=O)N[C@@H](CCC(N)=O)C(=O)NCC(=O)N1CCC[C@H]1C(=O)N[C@@H](Cc1c[nH]c2ccccc12)C(=O)N[C@@H](CC(C)C)C(=O)N[C@@H](CCC(=O)O)C(=O)N[C@@H](CCC(=O)O)C(=O)N[C@@H](CCC(=O)O)C(=O)N[C@@H](CCC(=O)O)C(=O)N[C@@H](CCC(=O)O)C(=O)N[C@@H](C)C(=O)N[C@@H](Cc1ccc(O)cc1)C(=O)NCC(=O)N[C@@H](Cc1c[nH]c2ccccc12)C(=O)N[C@@H](CC(C)C)C(=O)N[C@@H](CC(=O)O)C(=O)N[C@@H](Cc1ccccc1)C(N)=O)C(C)C [Compound 41, GLP-1(7-36)-Peg3-SKK-[Gln1,Leu15]Gastrin17]
25.7 nM | 86.9 nM | CC[C@H](C)[C@H](NC(=O)[C@H](Cc1ccccc1)NC(=O)[C@H](CCC(=O)O)NC(=O)[C@H](CCCCN)NC(=O)[C@H](C)NC(=O)[C@H](C)NC(=O)[C@H](CCC(N)=O)NC(=O)CNC(=O)[C@H](CCC(=O)O)NC(=O)[C@H](CC(C)C)NC(=O)[C@H](Cc1ccc(O)cc1)NC(=O)[C@H](CO)NC(=O)[C@H](CO)NC(=O)[C@@H](NC(=O)[C@H](CC(=O)O)NC(=O)[C@H](CO)NC(=O)[C@@H](NC(=O)[C@H](Cc1ccccc1)NC(=O)[C@@H](NC(=O)CNC(=O)[C@H](CCC(=O)O)NC(=O)[C@H](C)NC(=O)[C@@H](N)Cc1c[nH]cn1)[C@@H](C)O)[C@@H](C)O)C(C)C)C(=O)N[C@@H](C)C(=O)N[C@@H](Cc1c[nH]c2ccccc12)C(=O)N[C@@H](CC(C)C)C(=O)N[C@H](C(=O)N[C@@H](CCCCN)C(=O)NCC(=O)N[C@@H](CCCNC(=N)N)C(=O)NCCc1cccc2c1oc1c(CCC(=O)N[C@@H](CO)C(=O)N[C@@H](CCCCN)C(=O)N[C@@H](CCCCN)C(=O)N[C@@H](CCC(N)=O)C(=O)NCC(=O)N3CCC[C@H]3C(=O)N[C@@H](Cc3c[nH]c4ccccc34)C(=O)N[C@@H](CC(C)C)C(=O)N[C@@H](CCC(=O)O)C(=O)N[C@@H](CCC(=O)O)C(=O)N[C@@H](CCC(=O)O)C(=O)N[C@@H](CCC(=O)O)C(=O)N[C@@H](CCC(=O)O)C(=O)N[C@@H](C)C(=O)N[C@@H](Cc3ccc(O)cc3)C(=O)NCC(=O)N[C@@H](Cc3c[nH]c4ccccc34)C(=O)N[C@@H](CC(C)C)C(=O)N[C@@H](CC(=O)O)C(=O)N[C@@H](Cc3ccccc3)C(N)=O)cccc12)C(C)C [Compound 44, GLP-1(7-36)-DBF-SKK-[Gln1,Leu15]Gastrin17]
8.2 nM | 58.3 nM | CC[C@H](C)[C@H](NC(=O)[C@H](Cc1ccccc1)NC(=O)[C@H](CCC(=O)O)NC(=O)[C@H](CCCCN)NC(=O)[C@H](C)NC(=O)[C@H](C)NC(=O)[C@H](CCC(N)=O)NC(=O)CNC(=O)[C@H](CCC(=O)O)NC(=O)[C@H](CC(C)C)NC(=O)[C@H](Cc1ccc(O)cc1)NC(=O)[C@H](CO)NC(=O)[C@H](CO)NC(=O)[C@@H](NC(=O)[C@H](CC(=O)O)NC(=O)[C@H](CO)NC(=O)[C@@H](NC(=O)[C@H](Cc1ccccc1)NC(=O)[C@@H](NC(=O)CNC(=O)[C@H](CCC(=O)O)NC(=O)[C@H](C)NC(=O)[C@@H](N)Cc1c[nH]cn1)[C@@H](C)O)[C@@H](C)O)C(C)C)C(=O)N[C@@H](C)C(=O)N[C@@H](Cc1c[nH]c2ccccc12)C(=O)N[C@@H](CC(C)C)C(=O)N[C@H](C(=O)N[C@@H](CCCCN)C(=O)NCC(=O)N[C@@H](CCCNC(=N)N)C(=O)NCCOCCOCC(=O)NCCOCCOCC(=O)N[C@@H](CCC(N)=O)C(=O)NCC(=O)N1CCC[C@H]1C(=O)N[C@@H](Cc1c[nH]c2ccccc12)C(=O)N[C@@H](CC(C)C)C(=O)N[C@@H](CCC(=O)O)C(=O)N[C@@H](CCC(=O)O)C(=O)N[C@@H](CCC(=O)O)C(=O)N[C@@H](CCC(=O)O)C(=O)N[C@@H](CCC(=O)O)C(=O)N[C@@H](C)C(=O)N[C@@H](Cc1ccc(O)cc1)C(=O)NCC(=O)N[C@@H](Cc1c[nH]c2ccccc12)C(=O)N[C@@H](CC(C)C)C(=O)N[C@@H](CC(=O)O)C(=O)N[C@@H](Cc1ccccc1)C(N)=O)C(C)C [Compound 42, GLP-1(7-36)-Peg3-Peg3-[Gln1,Leu15]Gastrin17]
51.9 nM | 82.5 nM | CC[C@H](C)[C@H](NC(=O)[C@H](Cc1ccccc1)NC(=O)[C@H](CCC(=O)O)NC(=O)[C@H](CCCCN)NC(=O)[C@H](C)NC(=O)[C@H](C)NC(=O)[C@H](CCC(N)=O)NC(=O)CNC(=O)[C@H](CCC(=O)O)NC(=O)[C@H](CC(C)C)NC(=O)[C@H](Cc1ccc(O)cc1)NC(=O)[C@H](CO)NC(=O)[C@H](CO)NC(=O)[C@@H](NC(=O)[C@H](CC(=O)O)NC(=O)[C@H](CO)NC(=O)[C@@H](NC(=O)[C@H](Cc1ccccc1)NC(=O)[C@@H](NC(=O)CNC(=O)[C@H](CCC(=O)O)NC(=O)[C@H](C)NC(=O)[C@@H](N)Cc1c[nH]cn1)[C@@H](C)O)[C@@H](C)O)C(C)C)C(=O)N[C@@H](C)C(=O)N[C@@H](Cc1c[nH]c2ccccc12)C(=O)N[C@@H](CC(C)C)C(=O)N[C@H](C(=O)N[C@@H](CCCCN)C(=O)NCC(=O)N[C@@H](CCCNC(=N)N)C(=O)NCCCCCCCC(=O)N[C@@H](CO)C(=O)N[C@@H](CCCCN)C(=O)N[C@@H](CCCCN)C(=O)N[C@@H](CCC(N)=O)C(=O)NCC(=O)N1CCC[C@H]1C(=O)N[C@@H](Cc1c[nH]c2ccccc12)C(=O)N[C@@H](CC(C)C)C(=O)N[C@@H](CCC(=O)O)C(=O)N[C@@H](CCC(=O)O)C(=O)N[C@@H](CCC(=O)O)C(=O)N[C@@H](CCC(=O)O)C(=O)N[C@@H](CCC(=O)O)C(=O)N[C@@H](C)C(=O)N[C@@H](Cc1ccc(O)cc1)C(=O)NCC(=O)N[C@@H](Cc1c[nH]c2ccccc12)C(=O)N[C@@H](CC(C)C)C(=O)N[C@@H](CC(=O)O)C(=O)N[C@@H](Cc1ccccc1)C(N)=O)C(C)C [Compound 43, GLP-1(7-36)-8Aoc-SKK-[Gln1,Leu15]Gastrin17]
